According to the supplement of paper PMC4862054:

Tests used:
Details in all cases: incubation time: 72 h
MCF-10A [1] = experiment: drug sensitivity score (DSS), CellTiter-Glo (DSS (AUC-based score)); higher = stronger drug effect (viability inhibition or cytotoxicity); extreme values may be limits of the assay
In short: (§1)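 The drug sensitivity score was computed from the area under the fitted dose-response curve. Breast cancer cell lines in 20 µl suspension went into 384-well plates holding compound at 5 concentrations (10-fold steps over a 10,000-fold, compound-specific range) for 72 h of incubation. CellTox Green fluorescence (485/520 nm) was read before CellTiter-Glo luminescence, the latter after 10 min at room temperature, and each plate was normalised to 0.1 % DMSO and a positive kill control.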

HCC1143 [2] = experiment: as above
In short: as §1

CAL-148 = experiment: as above
In short: as §1

HCC1937 = experiment: as above
In short: as §1

HDQ-P1 = experiment: as above
In short: as §1

MFM-223 = experiment: as above
In short: as §1

CAL-51 = experiment: as above
In short: as §1

Hs578T = experiment: as above
In short: as §1

BT-474 [3] = experiment: as above
In short: as §1

BT-549 = experiment: as above
In short: as §1

DU-4475 = experiment: as above
In short: as §1

CAL-85-1 [4] = experiment: as above
In short: as §1

CAL-120 = experiment: as above
In short: as §1

HCC1599 = experiment: as above
In short: as §1

MDA-MB-468 = experiment: as above
In short: as §1

MDA-MB-231 = experiment: as above
In short: as §1

MDA-MB-436 = experiment: as above
In short: as §1

SK-BR-3 = experiment: as above
In short: as §1

MDA-MB-453 = experiment: as above
In short: as §1

MCF-10A [5] = experiment: normalised response (% of control), CellTiter-Glo; higher = more viable cells (100 = DMSO, 0 = benzethonium chloride kill control)
In short: (§2)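 Breast cancer cell lines were exposed for 72 h in 384-well plates to compound at 5 concentrations, 10-fold apart, covering a 10,000-fold range fixed for each compound. Plates were read for CellTox Green fluorescence and CellTiter-Glo luminescence and normalised to 0.1 % DMSO (100) and a positive kill control (0). Each value is the normalised signal at one concentration of the series.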

CAL-85-1 [6] = experiment: as above
In short: as §2

HCC1143 [7] = experiment: drug sensitivity score (DSS), CellTiter-Blue viability (DSS (AUC-based score)); higher = stronger viability inhibition; extreme values may be limits of the assay
Protocol: (§3)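 DSRT with the CellTiter-Blue (resazurin reduction) viability readout, fluorescence 560/590 nm, 72 h incubation. Plates were normalised to DMSO and benzethonium chloride controls. DSS is computed from the area under the fitted dose-response curve (5 or 9 concentrations).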

BT-474 [8] = experiment: as above
Protocol: as §3

SMILES	drug sensitivity score (MCF-10A [1])	drug sensitivity score (HCC1143 [2])	drug sensitivity score (CAL-148)	drug sensitivity score (HCC1937)	drug sensitivity score (HDQ-P1)	drug sensitivity score (MFM-223)	drug sensitivity score (CAL-51)	drug sensitivity score (Hs578T)	drug sensitivity score (BT-474 [3])	drug sensitivity score (BT-549)	drug sensitivity score (DU-4475)	drug sensitivity score (CAL-85-1 [4])	drug sensitivity score (CAL-120)	drug sensitivity score (HCC1599)	drug sensitivity score (MDA-MB-468)	drug sensitivity score (MDA-MB-231)	drug sensitivity score (MDA-MB-436)	drug sensitivity score (SK-BR-3)	normalised response (MCF-10A [5]) [%]	normalised response (CAL-85-1 [6]) [%]	also measured
COc1cc(F)c(F)c(Nc2ccc(I)cc2F)c1NS(=O)(=O)C1(C[C@H](O)CO)CC1 [Refametinib]	23.6	2.8	2.69	4.08	12.7	5.74	0	4.13	8.51	2.33	26.1	10.4	7.28	0	7.13	9.15	4.19	0			drug sensitivity score (MDA-MB-453): 0
Cc1ccc([N+](=O)[O-])cc1S(=O)(=O)N(C)/N=C/c1cnc2ccc(Br)cn12 [PIK-75]	28.4	24	19	24	25.5	26	30	29	28.5	29	29.1	29	22.4	23.1	30.2	30.5	27.1	30.4			drug sensitivity score (MDA-MB-453): 23
Nc1ncn([C@@H]2O[C@H](CO)[C@@H](O)[C@H]2O)c(=O)n1 [Azacitidine] (10000 nM)																			77	106	
COc1cc2c(cc1O)CC[C@@H]1[C@@H]2CC[C@]2(C)[C@@H](O)CC[C@@H]12 [2-methoxyestradiol] (10000 nM)																			67.1	33.3	
CC1(C)CCC(CN2CCN(c3ccc(C(=O)NS(=O)(=O)c4ccc(NCC5CCOCC5)c([N+](=O)[O-])c4)c(Oc4cnc5[nH]ccc5c4)c3)CC2)=C(c2ccc(Cl)cc2)C1 [ABT-199]	0	0	0	0	0	0	1.71	0	0	0	0	0	0	0	0.128	0	0	0			drug sensitivity score (MDA-MB-453): 0
CC1(C)CNc2cc(NC(=O)c3cccnc3NCc3ccncc3)ccc21 [Motesanib] (10000 nM)																			95.4	95.8	
Cn1cnc2c(F)c(Nc3ccc(Br)cc3Cl)c(C(=O)NOCCO)cc21 [Selumetinib] (10000 nM)																			31.8	61	
Oc1ncnc2[nH]ncc12 [Allopurinol] (10000 nM)																			105	106	
Nc1nc2[nH]cnc2c(=S)[nH]1 [Thioguanine] (10000 nM)																			66.9	51.7	
COc1cc(F)c(F)c(Nc2ccc(I)cc2F)c1NS(=O)(=O)C1(C[C@H](O)CO)CC1 [RDEA119]																					drug sensitivity score (HCC1143 [7]): 8.17; drug sensitivity score (BT-474 [8]): 0
C[C@]1(O)C[C@@H](c2nc(-c3ccc4ccc(-c5ccccc5)nc4c3)c3c(N)nccn32)C1 [Linsitinib]	12.5	1.82	0	0	5.33	0	0	0	3.89	0	0	2.88	1.76	2.37	4.62	0	0.173	6.62			drug sensitivity score (MDA-MB-453): 2.26
O=NN(CCCl)C(=O)NCCCl [Carmustine] (10000 nM)																			93.8	101	
CC(C)(C)c1cnc(CSc2cnc(NC(=O)C3CCNCC3)s2)o1 [SNS-032] (10000 nM)																			17.1	7.47	
